Patent EP4488269A1, “TRIAZOLE COMPOUNDS FOR THE CONTROL OF INVERTEBRATE PESTS” (BASF SE, priority 2023, dated 2025)

How the values were obtained:
Format in all cases: in vivo
[1] = system: tobacco budworm (Heliothis virescens); experiment: Tobacco budworm control (insect diet with eggs, 96-well plates); conditions: for mortality at 2500 ppm: 120 h, egg and larval mortality, 5 days, read-out: mortality in comparison with untreated controls; for mortality at 25 ppm: test B.2, 25 ppm, comparison with prior art, read-out: % mortality in comparison to untreated controls
Protocol: B.2 Tobacco budworm (Heliothis virescens)
For evaluating control of tobacco budworm (Heliothis virescens), the test unit consisted of 96-well-microtiter plates containing an insect diet and 15-25 H. virescens eggs.
The compounds were formulated using a solution containing 75% v/v water and 25% v/v DMSO. Different concentrations of formulated compounds were sprayed onto the insect diet at 10µl, using a custom-built micro atomizer, at two replications.
After application, microtiter plates were incubated at about 28 ± 1°C and about 80 ± 5 % relative humidity for 5 days. Egg and larval mortality was then visually assessed.

[2] = system: boll weevil (Anthonomus grandis); experiment: Boll weevil control (insect diet with eggs, 96-well plates); conditions: 120 h, egg and larval mortality, 5 days, read-out: mortality in comparison with untreated controls
Protocol: B.3 Boll weevil (Anthonomus grandis)
For evaluating control of boll weevil (Anthonomus grandis), the test unit consisted of 96-well-microtiter plates containing an insect diet and 5-10 A. grandis eggs.
The compounds were formulated using a solution containing 75% v/v water and 25% v/v DMSO. Different concentrations of formulated compounds were sprayed onto the insect diet at 5µl, using a custom-built micro atomizer, at two replications.
After application, microtiter plates were incubated at about 25 ± 1°C and about 75 ± 5 % relative humidity for 5 days. Egg and larval mortality was then visually assessed.

[3] = system: yellow fever mosquito (Aedes aegypti); experiment: whole plant or invertebrate; conditions: 48 h, larval mortality, 2 days, read-out: mortality in comparison with untreated controls
Protocol: B.5 Yellow fever mosquito (Aedes aegypti)
For evaluating control of yellow fever mosquito (Aedes aegypti) the test unit consisted of 96-well-microtiter plates containing 200µl of tap water per well and 5-15 freshly hatched A. aegypti larvae.
The active compounds were formulated using a solution containing 75% (v/v) water and 25% (v/v) DMSO. Different concentrations of formulated compounds or mixtures were sprayed onto the insect diet at 2.5µl, using a custom-built micro atomizer, at two replications.
After application, microtiter plates were incubated at 28 ± 1°C, 80 ± 5 % RH for 2 days. Larval mortality was then visually assessed.

[4] = system: green peach aphid (Myzus persicae); experiment: Green peach aphid control through systemic means (artificial diet, 96-well plates); conditions: 72 h, adult aphids on treated diet, 3 days, read-out: mortality in comparison with untreated controls
Text: B.1 Green Peach Aphid (Myzus persicae)
For evaluating control of green peach aphid (Myzus persicae) through systemic means, the test unit consisted of 96-well-microtiter plates containing liquid artificial diet under an artificial mem brane.
The compounds were formulated using a solution containing 75% v/v water and 25% v/v DMSO. Different concentrations of formulated compounds were pipetted into the aphid diet, using a custom built pipetter, at two replications.
After application, 5 - 8 adult aphids were placed on the artificial membrane inside the microtiter plate wells. The aphids were then allowed to suck on the treated aphid diet and incubated at about 23 ± 1°C and about 50 ± 5 % relative humidity for 3 days. Aphid mortality and fecundity was then visually assessed.

[5] = system: Southern armyworm (Spodoptera eridania), 2nd instar larvae; experiment: Southern armyworm foliar spray test on lima bean plants; conditions: 96 h, 4 days after treatment, read-out: mortality in comparison with untreated controls
Protocol: B.4. Southern armyworm (Spodoptera eridania), 2nd instar larvae
The active compounds were formulated by a Tecan liquid handler in 100% cyclohexanone as a 10,000-ppm solution supplied in tubes. The 10,000-ppm solution was serially diluted in 100% cyclohexanone to make interim solutions. These served as stock solutions for which final dilutions were made by the Tecan in 50% acetone:50% water (v/v) into 10 or 20ml glass vials. A non-ionic surfactant (Kinetic®) was included in the solution at a volume of 0.01% (v/v). The vials were then inserted into an automated electrostatic sprayer equipped with an atomizing nozzle for application to plants/insects. Lima bean plants (variety Sieva) were grown 2 plants to a pot and selected for treatment at the 1st true leaf stage. Test solutions were sprayed onto the foliage by an automated electrostatic plant sprayer equipped with an atomizing spray nozzle. The plants were dried in the sprayer fume hood and then removed from the sprayer. Each pot was placed into perforated plastic bags with a zip closure. Ten to 11 armyworm larvae were placed into the bag and the bags zipped closed. Test plants were maintained in a growth room at about 25°C and about 20-40% relative humidity for 4 days, avoiding direct exposure to fluorescent light (14:10 light:dark photoperiod) to prevent trapping of heat inside the bags. Mortality and reduced feeding were assessed 4 days after treatment, compared to untreated control plants.

Row | SMILES | mortality at 2500 ppm [1] | mortality at 2500 ppm [2] | mortality at 2500 ppm [3] | mortality at 2500 ppm [4] | mortality at 300 ppm [5] | mortality at 25 ppm [1]
1 | CC(NC(=O)c1cc(C(F)(F)F)cc(C(F)(F)F)c1)c1nccnc1-c1ncn(-c2cccnc2)n1 (stereo not drawn) [Compound I-1, N-[1-[3-[1-(3-pyridyl)-1,2,4-triazol-3-yl]pyrazin-2-yl]ethyl]-3,5-bis(trifluoromethyl)benzamide] | ≥ 75% | ≥ 75% | ≥ 75% | ≥ 75% | ≥ 75% | 
2 | CC(NC(=O)c1cc(C(F)(F)F)cc(C(F)(F)F)c1)c1nccnc1-c1ncn(-c2cccnc2N)n1 (stereo not drawn) [Compound I-2, N-[1-[3-[1-(2-amino-3-pyridyl)-1,2,4-triazol-3-yl]pyrazin-2-yl]ethyl]-3,5-bis(trifluoromethyl)benzamide] | ≥ 75% | ≥ 75% | ≥ 75% | ≥ 75% | ≥ 75% | 
3 | CC(NC(=O)c1cc(C(F)(F)F)cc(C(F)(F)F)c1)c1nccnc1-c1ncn(-c2cccnc2[N+](=O)[O-])n1 (stereo not drawn) [Compound I-3, N-[1-[3-[1-(2-nitro-3-pyridyl)-1,2,4-triazol-3-yl]pyrazin-2-yl]ethyl]-3,5-bis(trifluoromethyl)benzamide] | ≥ 75% | ≥ 75% |  |  | ≥ 75% | 
4 | CC(NC(=O)c1cc(C(F)(F)F)cc(C(F)(F)F)c1)c1nccnc1-c1ncn(-c2cccnc2Br)n1 (stereo not drawn) [Compound I-4, N-[1-[3-[1-(2-bromo-3-pyridyl)-1,2,4-triazol-3-yl]pyrazin-2-yl]ethyl]-3,5-bis(trifluoromethyl)benzamide] | ≥ 75% | ≥ 75% | ≥ 75% | ≥ 75% | ≥ 75% | 
5 | CC(NC(=O)c1cc(C(F)(F)F)cc(C(F)(F)F)c1)c1nccnc1-c1ncn(-c2ccccn2)n1 (stereo not drawn) [Compound I-6, N-[1-[3-[1-(2-pyridyl)-1,2,4-triazol-3-yl]pyrazin-2-yl]ethyl]-3,5-bis(trifluoromethyl)benzamide] | ≥ 75% | ≥ 75% | ≥ 75% | ≥ 75% | ≥ 75% | 100%
6 | CC(c1nccnc1-c1ncn(-c2ccccn2)n1)N(C)C(=O)c1cc(C(F)(F)F)cc(C(F)(F)F)c1 (stereo not drawn) [Compound I-17, N-methyl-N-[1-[3-[1-(2-pyridyl)-1,2,4-triazol-3-yl]pyrazin-2-yl]ethyl]-3,5-bis(trifluoromethyl)benzamide] | ≥ 75% | ≥ 75% | ≥ 75% | ≥ 75% | ≥ 75% | 
7 | CC(NC(=O)c1cc(C(F)(F)F)cc(C(F)(F)F)c1)c1nccnc1-c1ncn(C)n1 (stereo not drawn) [WO2023/025617 I1-12, reference compound] |  |  |  |  |  | 31%
